Measurements: patent US20080182859A1 (Curis, Inc., priority 2006, published 2008)
Counter-ions that a name gives are not always drawn.

Experiments:
Assay type in all cases: cell-based
sonic hedgehog pathway [1] = test: Hedgehog pathway Gli-luciferase reporter assay, TM3 cells; conditions: TM3 mouse Leydig cells
Procedure, shortened: (§1)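 Luminescence read-out of gli-promoter luciferase in stably transfected cells; 11-point 1:3 dose curves, 24 h compound exposure in 0.5% FBS, ± octyl-modified Hh protein 1–5 ng/ml. AMAX as % of plate low/high controls; EC50 from curve; >20% AMAX counted active.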

sonic hedgehog pathway [2] = test: Hedgehog pathway Gli-luciferase reporter assay, S12 cells; conditions: S12 mouse embryonic mesenchymal cells, read-out: S12 Avg. EC50
Excerpt: Mouse (TM3: mouse Leydig cells; S12: mouse embryonic mesenchymal cells) and human (Daoy: human medulloblastoma cell; HepM: human embryonic palatal mesenchymal cell) cell lines are used to screen small molecules for their ability to modulate the activity of the sonic hedgehog pathway (Table 1, Table 2, and Table 3). Stable hedgehog pathway reporter cell lines are established by specific antibiotic selection following transfection of a reporter plasmid containing a luciferase gene located directly downstream from the gli promoter. Consequently, any observable changes in cellular luciferase activity may be attributed to changes in sonic hedgehog pathway activity in mouse and human cells, respectively, since gli is the major by-product of this pathway. To calculate activity, we generate an eleven point dose curve for each compound using 1:3 dilutions in 96 well assay plates. Each plate tested also contains low and high control to establish maximal pathway activation so to establish/compare a percentage activation of each tested compound (AMAX) on respective plates. Also we calculate EC50 values, or a concentration where the pathway will be exactly 50% activated, for each tested compound to determine potency. In these cell lines, compounds that register >20% AMAX values are considered active.
Stable hedgehog pathway reporter cell lines are established following specific antibiotic selection following transfection of a reporter plasmid In short, typically cells are plated in MicroTiter-plates at 10,000-20,000 cells per well, in growth media (containing 10%-20% FBS). After 48-72 hrs (HGL and DGL respectively) the media in the assay plates is switched to low-serum containing media (0.5% FBS). At that time compounds are added (at 1-5 μM) to the assay plates, in the presence or absence of hedgehog protein (octyl-modified version; 1-5 ng/ml). After another 24 hrs of incubation, the media from the assay plates is discarded and replaced with luciferase assay-mix. Subsequently, plates are incubated at RT for ˜15-30 mins and then read in a luminometer. [note: addition of the Hedgehog protein, although not critical, will sensitize the assay allowing the identification of weak actives].

sonic hedgehog pathway [3] = test: Human hedgehog reporter assay HEPM-GliLuc (HGL); conditions: HepM human embryonic palatal mesenchymal cells, Gli-luciferase reporter
Procedure, shortened: as §1

sonic hedgehog pathway [4] = test: Human hedgehog reporter assay Daoy-GliLuc (DGL); conditions: Daoy human medulloblastoma cells, Gli-luciferase reporter; read-out: Daoy Avg. EC50
Procedure, shortened: as §1

Row | Structure (SMILES) | EC50 (sonic hedgehog pathway [1]) [nM] | EC50 (sonic hedgehog pathway [2]) [nM] | EC50 (sonic hedgehog pathway [3]) [nM] | EC50 (sonic hedgehog pathway [4]) [nM]
1 | CN[C@H]1CC[C@@H](N(Cc2cc(-c3ccc(C(=O)N(C)C)cc3)ccc2OC)C(=O)c2sc3ccccc3c2Cl)CC1 [317 (R19)] | < 50 | < 50 | < 50 | –
2 | CN[C@H]1CC[C@@H](N(Cc2cc(-c3ccc(C(N)=O)cc3)ccc2OC)C(=O)c2sc3ccccc3c2Cl)CC1 [Compound 316, 3-Chloro-benzo[b]thiophene-2-carboxylic acid (4′-carbamoyl-4-methoxy-biphenyl-3-ylmethyl)-(4-methylamino-cyclohexyl)-amide hydrochloride] | < 50 | < 50 | < 50 | –
3 | CN[C@H]1CC[C@@H](N(Cc2cc(-c3ccc(N)nc3)ccc2OC)C(=O)c2sc3ccccc3c2Cl)CC1 [Compound 319, 3-Chloro-benzo[b]thiophene-2-carboxylic acid [5-(6-amino-pyridin-3-yl)-2-methoxy-benzyl]-(4-methylamino-cyclohexyl)-amide dihydrochloride] | < 50 | < 50 | < 50 | –
4 | CN[C@H]1CC[C@@H](N(Cc2cc(-c3ccc(CO)cc3)ccc2OC)C(=O)c2sc3ccccc3c2Cl)CC1 [Compound 329, 3-Chloro-benzo[b]thiophene-2-carboxylic acid (4′-hydroxymethyl-4-methoxy-biphenyl-3-ylmethyl)-(4-methylamino-cyclohexyl)-amide hydrochloride] | < 50 | < 50 | < 50 | –
5 | CN[C@H]1CC[C@@H](N(Cc2cc(-c3ccnc(N)c3)ccc2OC)C(=O)c2sc3c(F)ccc(F)c3c2Cl)CC1 [Compound 355] | < 50 | < 50 | < 50 | –
6 | CN[C@H]1CC[C@@H](N(Cc2cc(-c3ccncc3)ccc2O)C(=O)c2sc3c(F)ccc(F)c3c2Cl)CC1 [Compound 368, 3-Chloro-4,7-difluoro-benzo[b]thiophene-2-carboxylic acid (2-hydroxy-5-pyridin-4-yl-benzyl)-(4-methylamino-cyclohexyl)-amide dihydrochloride] | – | < 50 | < 50 | < 50
7 | CN[C@H]1CC[C@H](N(Cc2cc(-c3ccccc3S(C)(=O)=O)ccc2OC)C(=O)c2sc3c(F)ccc(F)c3c2Cl)CC1 [Compound 411, 3-Chloro-4,7-difluoro-benzo[b]thiophene-2-carboxylic acid (2′-methanesulfonyl-4-methoxy-biphenyl-3-ylmethyl)-(4-methylamino-cyclohexyl)-amide hydrochloride] | – | 250 to 1000 | – | 1000 to 2500
8 | CN[C@H]1CC[C@H](N(Cc2cc(-c3cccc(S(C)(=O)=O)c3)ccc2OC)C(=O)c2sc3c(F)ccc(F)c3c2Cl)CC1 [Compound 412, 3-Chloro-4,7-difluoro-benzo[b]thiophene-2-carboxylic acid (3′-methanesulfonyl-4-methoxy-biphenyl-3-ylmethyl)-(4-methylamino-cyclohexyl)-amide hydrochloride] | – | < 50 | – | < 50
9 | CN[C@H]1CC[C@H](N(Cc2cc(-c3cccnc3OC)ccc2OC)C(=O)c2sc3cccc(F)c3c2Cl)CC1 [Compound 413] | – | 50 to 250 | – | < 50
10 | CCOc1cc(-c2ccc(OC)c(CN(C(=O)c3sc4c(F)ccc(F)c4c3Cl)[C@H]3CC[C@H](NC)CC3)c2)ccn1 [Compound 414] | – | 50 to 250 | – | < 50
11 | CCOc1cc(-c2ccc(OC)c(CN(C(=O)c3sc4cccc(F)c4c3Cl)[C@H]3CC[C@H](NC)CC3)c2)ccn1 [Compound 415] | – | 50 to 250 | – | 50 to 250
12 | COc1ccc(-c2cncc(F)c2)cc1CN(C(=O)c1sc2c(F)ccc(F)c2c1Cl)[C@H]1CC[C@@H](N)CC1 [Compound 416] | – | < 50 | – | 50 to 250
13 | COc1ccc(-c2ccncc2F)cc1CN(C(=O)c1sc2c(F)ccc(F)c2c1Cl)[C@H]1CC[C@@H](N)CC1 [Compound 417] | – | < 50 | – | < 50
14 | COc1ccc(-c2cc[n+](C)cc2)cc1CN(C(=O)c1sc2c(F)ccc(F)c2c1Cl)[C@H]1CC[C@@H](N)CC1 [Compound 418] | – | 1000 to 2500 | – | < 50
